Data reported in ChEMBL document CHEMBL1772989, “Non-peptide metabolites from the genus Bacillus” (J Nat Prod, 2011).

What was measured:
Staphylococcus aureus = experiment: Antibacterial activity against Staphylococcus aureus ATCC 10832; type: functional
Pseudomonas aeruginosa = experiment: Antibacterial activity against Pseudomonas aeruginosa ATCC 14210; type: functional

Structure (SMILES)	MIC (Staphylococcus aureus) [µg/mL]	MIC (Pseudomonas aeruginosa) [µg/mL]
CC(C)CCCCCCCCC(=O)N[C@@H](CC(N)=O)C(=O)O [LIPOAMIDE B]	> 100	> 100
CC(C)CCCCCCCCCC(=O)N[C@@H](CC(N)=O)C(=O)O [LIPOAMIDE C]	> 100	> 100
CC(C)CCCCCCCC(=O)N[C@@H](CC(N)=O)C(=O)O [LIPOAMIDE A]	> 100	> 100
